Experimental data from publication PMC7116876, “Mechanistic Insights into Regulation of the ALC1 Remodeler by the Nucleosome Acidic Patch” (Cell reports, 2020).

Experiments:
[1] = tested on: APM/APM nucleosomes (H2A E61A, E64A, D90A, E92A); test: Fluorescence anisotropy binding assay, APM/APM nucleosomes; set-up: species or system Xenopus laevis histones; conditions: 10 nM TAMRA-labeled peptide, 15 mM HEPES pH 7.5, 30°C, one representative curve of two independent experiments
Description: (§1) The DNA constructs used in the nucleosome assembly for single-molecule and ensemble remodeling studies comprised the Widom 601 nucleosome positioning sequence ([Lowary and Widom, 1998]) as well as either 3 bp or 12 bp of linker DNA on one side and 78 bp on the other side (for the single-molecule remodeling construct) or 63 bp of linker DNA on one side and no linker DNA on the other side (for the ensemble remodeling construct). All constructs were 5’-labeled with Cy5 on the short linker end. The constructs for single-molecule experiments additionally featured a biotin on the long linker end. […] The DNA constructs for the assembly of nucleosomes used in fluorescence anisotropy experiments and ATPase assays comprised the Widom 601 positioning sequence without additional linker DNA (for the fluorescence anisotropy construct) or 63 bp of linker DNA on one side and no linker DNA on the other side (for the ATPase assay construct). […]
For binding studies, we used nucleosomes without linker DNA (WT/WT or APM/APM) as well as the following synthetic peptides (as detailed above): LANA peptide-TAMRA, ALC1^RLS peptide-TAMRA, and ALC1^RLS peptide. Fluorescence anisotropy measurements were carried out at 30°C using a CLARIOstar microplate reader (BMG Labtech). Binding curves were recorded in black low-volume 384-well assay plates (Corning). […]

[2] = biological target: T1, WT/WT nucleosomes (acidic patch) (Xenopus laevis, UniProt P02281+P06897+P62799); test: Competition fluorescence anisotropy with LANA-TAMRA pre-bound to WT/WT nucleosomes; format: binding, Xenopus laevis histones; conditions: LANA-TAMRA 10 nM, WT/WT nucleosomes 100 nM, varying unlabeled ALC1^RLS peptide, 30°C; n = 3 independent experiments
T1 construct: made in house; host or cells: E. coli BL21 (DE3) pLysS
Description: For binding studies, we used nucleosomes without linker DNA (WT/WT or APM/APM) as well as the following synthetic peptides (as detailed above): LANA peptide-TAMRA, ALC1^RLS peptide-TAMRA, and ALC1^RLS peptide. Fluorescence anisotropy measurements were carried out at 30°C using a CLARIOstar microplate reader (BMG Labtech). Binding curves were recorded in black low-volume 384-well assay plates (Corning). Individual wells contained 10 nM peptide and the indicated concentration of nucleosomes in 15 mM HEPES pH 7.5,1 mM EDTA, 5% glycerol, and 1 mM DTT. Dissociation constants were determined by fitting the fluorescence anisotropy data to the solution of a quadratic equation derived from the binding isotherm, which took into account depletion of peptide: r=αA+KD+B−A+KD+B^2−4AB , where r is the fluorescence anisotropy, A represents the total concentration of peptide, a is a scaling factor, KD is the dissociation constant, and B is the total concentration of titrated ligand. […]
For fluorescence anisotropy binding experiments, the reported values represent the mean ± SEM from 3 independent experiments. […] For ensemble nucleosome remodeling time courses, each experimental condition was recorded in 3 independent experiments, and representative remodeling time courses are shown. […]

[3] = tested on: ALC1-catalyzed remodeling of WT/WT nucleosomes; test: Ensemble FRET nucleosome remodeling, WT/WT nucleosomes; format: biochemical, Homo sapiens ALC1; Xenopus laevis histones; conditions: WT/WT nucleosomes 10 nM preincubated with 80 μM LANA peptide 5 min room temperature; 80 nM ALC1^fl R860W (Fig 1C) or 80 nM ALC1^fl activated with PARP1/NAD+ (Fig S1C)
Description: cDNAs for ALC1 and PARP1 were of Homo sapiens origin. Histone proteins (recombinantly expressed in E. coli) were of Xenopus laevis origin. Cell lines as well as growth conditions are described in the Method Details.
Oligonucleotides used in this study were ordered from IDT (see Table S3). The ALC1^fl (16-879) construct contains the human ALC1 sequence and a 6xHis-tag, as previously published ([Lehmann et al., 2017]). All point mutations were generated by PCR-based site-directed mutagenesis. The plasmid for human PARP1 (1-1014) with an N-terminal 6xHis-tag was a kind gift from John M. Pascal ([Langelier et al., 2017]).
as §1, with “construct).” for “construct). All constructs were 5’-labeled with Cy5 on the short linker end. The constructs for single-molecule experiments additionally featured a biotin on the long linker end.”

Question: For `CC[C@H](C)[C@H](NC(=O)[C@H](CC(C)C)NC(=O)[C@@H](NC(=O)[C@H](CO)NC(=O)CNC(=O)[C@H](CCCCN)NC(=O)[C@H](CC(N)=O)NC(=O)[C@H](CCCNC(=N)N)NC(=O)[C@H](CC(C)C)NC(=O)[C@H](CO)NC(=O)[C@H](CCCNC(=N)N)NC(=O)CNC(=O)[C@H](CCC(=O)O)NC(=O)[C@H](CCC(N)=O)NC(=O)[C@H](CO)NC(=O)[C@H](C)NC(=O)[C@H](CCCCN)NC(=O)[C@@H](N)CCC(=O)O)C(C)C)C(=O)N1CCC[C@H]1C(=O)NCC(=O)N[C@@H](CC(C)C)C(=O)N[C@@H](CCCCNC(=O)c1ccc2c(c1)C(=O)OC21c2ccc(N(C)C)cc2Oc2cc(N(C)C)ccc21)C(=O)O` [ALC1^RLS-TAMRA], which “affinity for nucleosomes with AP mutations on both H2A/H2B dimers” value [1] is on record?
Answer: Its value is “substantially reduced affinity”.

Question: For “EKASQEGRSLRNKGSVLIPGL [ALC1^RLS peptide, N-terminal regulatory linker segment (residues 604–624) of ALC1, unlabeled]”, which “effect on fluorescence anisotropy of pre-formed LANA-TAMRA peptide-nucleosome complex” value [2] is on record?
Answer: Its value is “caused a decrease in its fluorescence anisotropy in a dose-dependent manner”.

Question: Which “effect on ALC1-catalyzed remodeling” value [3] does the source give for “MAPPGMRLRSGRSTGAPLTRGS [LANA peptide, peptide derived from the latency-associated nuclear antigen (LANA) of Kaposi's sarcoma-associated herpesvirus, reference compound]” here?
Answer: Its value is “completely abrogated ALC1-catalyzed remodeling”.
